Results as given in ChEMBL document CHEMBL1141639, “Synthesis and heme-binding correlation with antimalarial activity of 3,6-bis-(omega-N,N-diethylaminoamyloxy)-4,5-difluoroxanthone” (Bioorg Med Chem, 2008).

Key:
[1] = test system: Plasmodium falciparum; assay: Antimalarial activity against Plasmodium falciparum W2 in MSF assay; type: functional, organism-based
[2] = test system: Plasmodium falciparum; assay: Antimalarial activity against Plasmodium falciparum D6 in MSF assay; type: functional, organism-based
[3] = Binding affinity to heme in aqueous solution

Structure (SMILES)	IC50 [1]	IC50 [2]	Ka [3]
CCN(CC)CCCCCOc1ccc2c(=O)c3ccc(OCCCCCN(CC)CC)c(F)c3oc2c1F	150 nM	93 nM	0.6 10^5/M
CCN(CC)CCCCCOc1ccc2c(=O)c3ccc(OCCCCCN(CC)CC)cc3oc2c1	120 nM	180 nM	8.2 10^5/M
O[C@@H](c1cc(C(F)(F)F)nc2c(C(F)(F)F)cccc12)[C@H]1CCCCN1 [MEFLOQUINE]	0.7 nM	5.9 nM	0.1 10^5/M
C=CC1CN2CC[C@H]1C[C@H]2[C@H](O)c1ccnc2ccc(OC)cc12 (single isomer, unassigned) [QUININE]	60 nM	11 nM	0.2 10^5/M
